Holding throughout (type): biochemical
What all share (conditions): role: inhibitor; substrate FRET peptide

The target in one assay is MMP9 (Homo sapiens, UniProt P14780). Put plainly: FRET peptide cleavage assay, MMP9 activity and its inhibition. An excerpt: (§1) A possible application of the peptides is the analysis of protease activity and the effect of substances on it. This can be utilized for understanding the role of proteases in physiological and pathological processes as well as for targeting proteases for disease diagnosis or treatment. […] 7-Methoxycoumain-4-acetic acid (Mca) is a is a fluorescent dye with an excitation peak at 322 nm and an emission peak at 381 nm. The absorbance spectrum of 2,4-dinitrophenyl (Dnp) overlaps with the emission spectrum of Mca, therefore it acts as a quencher. As long as both are in close proximity (up to about 5-10 nm), excitation of Mca leads to energy transfer to Dnp. Separation of the fluorophore-quencher pair by hydrolysis of the protease-specific cleavage site between both compounds liberates the fluorescence signal and the rise in its intensity can easily be monitored overtime. This method is sensitive and time efficient. It allows quantitative assessment of enzymatic activity and the developed fluorogenic substrates are suitable for high throughput screening, for example of protease inhibitors.

For another assay, the target named is MMP8 (Homo sapiens, UniProt P22894). The experiment in a line: FRET peptide cleavage assay, MMP8 activity and its inhibition.
Excerpt: as §1

In the next assay the target is MMP13 (Homo sapiens, UniProt P45452). Put plainly: FRET peptide cleavage assay, MMP13 activity and its inhibition.
Excerpt: as §1, with “overtime.” for “overtime. This method is sensitive and time efficient. It allows quantitative assessment of enzymatic activity and the developed fluorogenic substrates are suitable for high throughput screening, for example of protease inhibitors.”

The text below walks through data of US20260358340A1, “MATRIX METALLOPROTEINASE 13 SENSITIVE PEPTIDES AND SENSORS” (Julius-Maximilians-Universitaet Wuerzburg, priority 2023, published 2026).

Each structure is given as a SMILES string.

Chain of MMP8 (P22894 101-467): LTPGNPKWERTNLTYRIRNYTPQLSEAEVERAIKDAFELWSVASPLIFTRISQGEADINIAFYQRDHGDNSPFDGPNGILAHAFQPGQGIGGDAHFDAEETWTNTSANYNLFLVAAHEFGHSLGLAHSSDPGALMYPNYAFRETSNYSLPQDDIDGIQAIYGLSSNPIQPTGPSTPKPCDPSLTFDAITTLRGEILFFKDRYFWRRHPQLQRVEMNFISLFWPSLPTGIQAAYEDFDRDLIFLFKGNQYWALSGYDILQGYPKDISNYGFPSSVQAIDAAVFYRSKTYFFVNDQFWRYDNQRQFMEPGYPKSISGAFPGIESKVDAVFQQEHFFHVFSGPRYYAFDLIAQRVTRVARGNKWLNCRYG
Chain of MMP9 (P14780 94-707): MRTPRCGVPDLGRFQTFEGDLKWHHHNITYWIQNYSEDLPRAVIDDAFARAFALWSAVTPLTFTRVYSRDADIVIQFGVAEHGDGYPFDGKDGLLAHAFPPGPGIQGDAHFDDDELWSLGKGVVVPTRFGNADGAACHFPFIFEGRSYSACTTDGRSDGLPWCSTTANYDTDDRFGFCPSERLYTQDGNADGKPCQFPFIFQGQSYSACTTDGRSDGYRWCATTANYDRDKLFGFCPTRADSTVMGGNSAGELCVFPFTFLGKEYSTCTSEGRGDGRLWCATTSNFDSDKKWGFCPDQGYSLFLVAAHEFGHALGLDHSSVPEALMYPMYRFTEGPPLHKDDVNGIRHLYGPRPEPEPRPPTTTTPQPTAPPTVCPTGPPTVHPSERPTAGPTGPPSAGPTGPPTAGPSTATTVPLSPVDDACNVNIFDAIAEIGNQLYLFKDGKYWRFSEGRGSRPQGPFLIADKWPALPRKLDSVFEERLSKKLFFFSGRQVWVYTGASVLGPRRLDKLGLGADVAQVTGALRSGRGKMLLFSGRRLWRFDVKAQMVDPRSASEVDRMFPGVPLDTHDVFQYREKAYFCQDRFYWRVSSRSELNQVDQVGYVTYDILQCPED

In the case of `CNC(=O)[C@@H](NC(=O)[C@H](CC(C)C)[C@H](O)C(=O)NO)C(C)(C)C` [Marimastat], the “loss of MMP9 activity” value at MMP9 is on record as “complete loss”. On MMP8, the “loss of MMP8 activity” value is “complete loss”.
For `CCCCCCCCCCCCOS(=O)(=O)[O-].[Na+]` [SDS], the “loss of MMP13 activity” value on MMP13 is reported as “complete loss”. Moreover, the “loss of MMP9 activity” value on MMP9 is reported as “complete loss”. The “loss of MMP8 activity” value at MMP8 was “complete loss”.
As for `O=C(O)CN(CCN(CC(=O)O)CC(=O)O)CC(=O)O` [EDTA], the “loss of MMP13 activity” value at MMP13 is given as “complete loss”. Moreover, at MMP9, the “loss of MMP9 activity” value was “complete loss”. For the same molecule, the “loss of MMP8 activity” value on MMP8 is “complete loss”.
